Assays:
[1] = tested on: PC-3 cells; test: In vitro invasion assay in PC-3 cells; type: cell-based; conditions: Homo sapiens, 48 hours, compared to the control
Procedure: Transwell chambers coated with GFR Matrigel (BD Biosciences) were used for measurement of cell invasion. The matrigel was solidified at 37° C. in a humidified incubator the day before the assay. PC3 cells (1×10^3 cells per well) were grown in serum-free RPMI1640 media in the upper side of the insert. The lower well was filled with RPMI 1640 supplemented with 10% FBS with a Limk inhibitor (1 μM). PC3 cells were incubated at 37° C. in a humidified atmosphere containing 5% CO2 for 48 h. Then transwell membrane was rinsed three times with PBS, and the cells were fixed in 2.5% EM grade glutaraldehyde for 15 min at room temperature (RT) with no shaking. After removing glutaraldehyde by aspirating, the cells were permeabilized with 0.5% Triton X-100 in PBS for 3 min at RT, and they were rinsed three times with PBS. Then, the cells were stained by Gill's hematoxylin No. 1 for 15 min at RT, and they were washed by distilled water for three times. To remove any residual stain, the cells were washed by acid alcohol for 3 minutes and then rinsed by distilled water twice. The cells were exposed with 0.04% NH4OH until a blue color is observed on the membrane and then rinsed by distilled water twice. The membranes were dried overnight, and the stained cells were visualized under Leica DMI3000B microscope.

[2] = biological target: ROCK-II (Homo sapiens, UniProt O75116); test: ROCK-II biochemical counter-screen; conditions: read-out: ROCK-II IC50
Chain of ROCK-II (O75116 whole entry, species assumed): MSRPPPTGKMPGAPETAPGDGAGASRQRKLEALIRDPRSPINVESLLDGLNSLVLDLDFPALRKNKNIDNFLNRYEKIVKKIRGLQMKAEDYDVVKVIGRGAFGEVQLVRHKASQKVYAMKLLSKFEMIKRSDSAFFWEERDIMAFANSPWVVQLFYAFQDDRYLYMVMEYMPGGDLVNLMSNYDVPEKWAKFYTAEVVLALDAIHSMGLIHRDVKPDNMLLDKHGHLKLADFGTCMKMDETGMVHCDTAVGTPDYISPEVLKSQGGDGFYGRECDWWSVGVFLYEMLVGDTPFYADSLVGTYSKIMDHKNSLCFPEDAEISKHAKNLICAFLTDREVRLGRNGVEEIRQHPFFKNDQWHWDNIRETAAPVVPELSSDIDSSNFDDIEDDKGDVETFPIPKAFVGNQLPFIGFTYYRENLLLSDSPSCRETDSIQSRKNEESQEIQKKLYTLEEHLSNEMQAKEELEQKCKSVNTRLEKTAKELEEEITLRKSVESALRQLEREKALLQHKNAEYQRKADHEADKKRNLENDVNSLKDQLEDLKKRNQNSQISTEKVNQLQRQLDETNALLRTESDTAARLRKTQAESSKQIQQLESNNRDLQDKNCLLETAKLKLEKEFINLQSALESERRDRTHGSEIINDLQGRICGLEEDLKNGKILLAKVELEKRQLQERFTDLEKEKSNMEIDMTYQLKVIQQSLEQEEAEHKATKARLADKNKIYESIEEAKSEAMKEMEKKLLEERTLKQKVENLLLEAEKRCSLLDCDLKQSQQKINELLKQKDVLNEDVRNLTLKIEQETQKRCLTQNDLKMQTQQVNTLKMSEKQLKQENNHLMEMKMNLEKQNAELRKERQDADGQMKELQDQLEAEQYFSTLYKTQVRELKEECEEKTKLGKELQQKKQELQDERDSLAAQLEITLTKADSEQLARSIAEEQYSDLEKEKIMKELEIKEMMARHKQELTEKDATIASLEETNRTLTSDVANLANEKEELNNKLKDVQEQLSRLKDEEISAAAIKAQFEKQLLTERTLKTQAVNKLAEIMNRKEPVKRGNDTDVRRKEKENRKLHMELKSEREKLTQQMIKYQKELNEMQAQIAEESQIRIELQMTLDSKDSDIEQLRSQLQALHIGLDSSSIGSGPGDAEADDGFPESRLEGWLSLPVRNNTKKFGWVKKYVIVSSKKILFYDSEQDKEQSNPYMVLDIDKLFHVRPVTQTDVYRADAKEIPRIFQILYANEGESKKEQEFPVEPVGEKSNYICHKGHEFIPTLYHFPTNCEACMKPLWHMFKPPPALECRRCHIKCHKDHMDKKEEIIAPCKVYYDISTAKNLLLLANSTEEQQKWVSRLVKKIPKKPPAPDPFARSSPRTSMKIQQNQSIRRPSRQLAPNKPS

[3] = Microsomal stability, human liver microsomes; type: in vitro ADME
[4] = tested on: single-cycle HIV-1(Env) in CEM-SS T cells; test: Viral 2-LTR circles, real-time PCR; type: cell-based
[5] = tested on: phosphorylation of PAK1/2; test: Western blot of PAK1/2 phosphorylation in CEM-SS T cells; type: cell-based, human
Procedure: FIG. 10. Chemical and Biochemical characterization of R10015. a, Chemical structure of R10015 and its docking into the crystal structure of LIMK1 (PDB ID 3S95, Chain A). […] CEM-SS T cells treated with R10015 (100 μM) for a time course, and the phosphorylation of cofilin, LIMK, and PAK1/2 were measured by Western Blot. Levels of each protein or GAPDH were also measured for loading control. d, R10015 inhibits Jurkat T cell chemotaxis in responding to SDF-1. e, R10015. f, R10015 inhibits chemotactic actin activity. Resting CD4 T cells were treated with R10015, and then exposed to SDF-1 for a time course. Actin polymerization were measured by FITC-phalloidin staining. g, the relative intensity of F-actin staining was also plotted.
One million cells were lysed in NuPAGE LDS Sample Buffer (Invitrogen), separated by SDS-PAGE, and then transferred onto nitrocellulose membranes (Invitrogen). The membranes were washed in TBST for 3 min and then blocked for 30 min at room temperature with Starting Block blocking buffer (Pierce). For probing with different antibodies, blots were incubated with rabbit anti-LIMK1 antibodies (Cell Signaling), with rabbit anti-p-coflin antibodies (Cell Signaling) or with a mouse anti-PAK1/2 antibody (Cell Signaling). These antibodies were diluted in 2.5% milk/TBST and rocked overnight at 4° C. […]

[6] = biological target: Limk1 (Homo sapiens, UniProt P53667); test: Kinase profiling at 1 μM (Reaction Biology); type: biochemical; set-up: His; purchased Reaction Biology Corporation; host or cells: insect cells; conditions: ATP 10 μM
Chain of Limk1 (P53667 285-638): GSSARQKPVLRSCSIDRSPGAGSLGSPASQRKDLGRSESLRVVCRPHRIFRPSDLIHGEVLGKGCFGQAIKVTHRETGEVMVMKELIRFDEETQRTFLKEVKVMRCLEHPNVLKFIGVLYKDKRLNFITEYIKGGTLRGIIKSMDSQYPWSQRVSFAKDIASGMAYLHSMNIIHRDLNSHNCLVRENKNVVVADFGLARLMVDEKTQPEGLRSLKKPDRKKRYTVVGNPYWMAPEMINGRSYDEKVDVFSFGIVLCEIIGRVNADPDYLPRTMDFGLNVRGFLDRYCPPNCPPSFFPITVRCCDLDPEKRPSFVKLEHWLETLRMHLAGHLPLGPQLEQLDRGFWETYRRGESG
Procedure: Profiling was carried out at Reaction Biology Corporation following a protocol described at its website: http://www.reactionbiology.com/webapps/site/. The % data were the average from two determinations. ATP concentration used: 10 μM; Staurosporine was used as the positive control.
Biochemical assays for all Limk inhibitors and kinase profiling were carried out in Reaction Biology Corporation and followed the protocols described on its website. […] Compounds were tested at 1 μM with duplicate experiments in profiling assays. […] Reactions were carried out at 10 μM ATP, 1 μM substrate cofilin, and 50 nM Limk1 (final concentrations).

[7] = tested on: resting CD4 T cells; test: Surface staining of CD25 and CD69 (T cell activation); type: cell-based, human; conditions: CD3/CD28 beads
[8] = tested on: VEEV (venezuelan equine encephalitis virus); type: cell-based; conditions: Vero cells
[9] = tested on: HSV-1 (Herpes simplex virus); type: cell-based; conditions: Vero cells

SMILES | inhibition at 1 µM [1] [%] | IC50 [2] [µM] | Microsomal Stability t1/2 (min) Human [3] [min] | viral nuclear migration (2-LTR circles) [4] | phosphorylation of PAK1/2 [5] | activity at 1 µM [6] [%] | T cell activation (CD25 and CD69 surface staining) [7] | VEEV infection [8] | HSV-1 infection [9]
Cc1c[nH]c2ncnc(-c3ccc(NC(=O)N(CCO)c4ccccc4)cc3)c12 [Compound 18b, 1-(2-Hydroxyethyl)-3-(4-(5-methyl-7H-pyrrolo[2,3-d]pyrimidin-4-yl)phenyl)-1-phenylurea] | 76 | 6.57 | 87 |  |  |  |  |  | 
COC(=O)c1ccc2[nH]c(C3CCN(c4ncnc5[nH]cc(Cl)c45)CC3)nc2c1 [Compound R10015, Methyl 2-(1-(5-chloro-7H-pyrrolo[2,3-d]pyrimidin-4-yl)piperidin-4-yl)-1Hbenzo[d]imidazole-5-carboxylate] |  |  |  | inhibited | not inhibited | 6.4 | did not inhibit T cell activation | inhibited | inhibited
